Results: ChEMBL document CHEMBL5120904, “Zelkovamycins F and G, Cyclopeptides with Cα-Methyl-threonine Residues, from an Endophytic Kitasatospora sp” (J Nat Prod, 2022)
≈ marks a conversion by molar mass, not a printed value. *1 amine or outer side, *2 acyl side, *3 side chain or, on linkers, in order; H or OH if unused. Where a SMILES comes first, the peptide text is derived from it. [ ]: non-standard residue; d: D form. dAla(ψthiazole) = C[C@@H](N[*:1])c1nc(C(=O)[*:2])cs1; Trp(4-OMe) = COc1cccc2[nH]cc(C[C@H](N)C(=O)O)c12; X1 = CC(=O)[C@](C)(N[*:1])C(=O)[*:2]; Dhb = C/C=C(\N)C(=O)O; Sar = CNCC(=O)O

Legend:
[1] = Selectivity index, ratio of CC50 for human Huh7.5 cells to EC50 for antiviral activity against HCV infected in human Huh7.5 cells; type: toxicity, cell-based; conditions: read-out: Ratio CC50/EC50
[2] = system: Hepatitis C virus; experiment: Antiviral activity against HCV infected in human Huh7.5 cells assessed as reduction in viral RNA level measured after 72 hrs by RT-PCR analysis; type: functional, organism-based, Hepacivirus hominis; conditions: Huh7.5, 72 h
[3] = Cytotoxicity against human Huh7.5 cells; type: toxicity, cell-based, Huh-7.5
[4] = system: Staphylococcus aureus; experiment: Antibacterial activity against methicillin-resistant Staphylococcus aureus ATCC33591 measured after 24 hrs by broth microdilution method; type: functional
[5] = system: Escherichia coli; experiment: Antibacterial activity against Escherichia coli measured after 24 hrs by broth microdilution method; type: functional
[6] = system: Klebsiella pneumoniae; experiment: Antibacterial activity against Klebsiella pneumoniae ATCC700603 measured after 24 hrs by broth microdilution method; type: functional
[7] = system: Pseudomonas aeruginosa; experiment: Antibacterial activity against Pseudomonas aeruginosa ATCC27853 measured after 24 hrs by broth microdilution method; type: functional
[8] = system: Morganella morganii; experiment: Antibacterial activity against beta-lactamase-producing Morganella morganii ATCC25830 measured after 24 hrs by broth microdilution method; type: functional
[9] = system: Staphylococcus aureus; experiment: Antibacterial activity against methicillin-sensitive Staphylococcus aureus ATCC29213 measured after 24 hrs by broth microdilution method; type: functional
[10] = system: Morganella morganii; experiment: Antibacterial activity against multidrug-resistant Morganella morganii KL-225 measured after 24 hrs by broth microdilution method; type: functional
[11] = system: Influenza A virus; experiment: Antiviral activity against Influenza A virus A/WSN/33(H1N1) infected in HEK293T cells pretreated for 2 hrs followed by viral infection and measured after 24 hrs by Gaussia luciferase assay; type: functional, organism-based; conditions: HEK-293T
[12] = system: Staphylococcus aureus; experiment: Antibacterial activity against methicillin-resistant Staphylococcus aureus R6101 measured after 24 hrs by broth microdilution method; type: functional
[13] = system: Bacillus subtilis; experiment: Antibacterial activity against Bacillus subtilis ATCC6633 measured after 24 hrs by broth microdilution method; type: functional
[14] = system: Staphylococcus epidermidis; experiment: Antibacterial activity against Staphylococcus epidermidis ATCC12228 measured after 24 hrs by broth microdilution method; type: functional

SMILES | selectivity ratio [1] | EC50 [2] [µM] | CC50 [3] [µM] | MIC [4] [µg/mL] | MIC [5] [µg/mL] | MIC [6] [µg/mL] | MIC [7] [µg/mL] | MIC [8] [µg/mL] | MIC [9] [µg/mL] | MIC [10] [µg/mL] | EC50 [11] [µM] | MIC [12] [µg/mL] | MIC [13] [µg/mL] | MIC [14] [µg/mL]
C/C=C1\NC(=O)[C@@H](C)NC(=O)CNC(=O)[C@](C)(C(C)=O)NC(=O)[C@H](Cc2c[nH]c3cccc(OC)c23)NC(=O)c2csc(n2)[C@@H](C)NC(=O)CN(C)C1=O (cyclo([Dhb][Sar][dAla(ψthiazole)][Trp(4-OMe)][X1]G[dA])) | > 16.6 | 2.2 | > 36.5 | – | – | – | – | – | – | – | – | – | – | –
C=C1NC(=O)[C@@H](CC)NC(=O)CNC(=O)[C@](C)(C(C)=O)NC(=O)[C@H](Cc2c[nH]c3cccc(OC)c23)NC(=O)c2csc(n2)[C@@H](C)NC(=O)CN(C)C1=O | – | – | – | 1.25 (≈ 1.63 µM) | > 160 | > 160 | > 160 | 40 (≈ 52.2 µM) | 10 (≈ 13.1 µM) | 40 (≈ 52.2 µM) | > 50 | 40 (≈ 52.2 µM) | > 160 | 5 (≈ 6.53 µM)
C/C=C1\NC(=O)[C@@H](CC)NC(=O)CNC(=O)[C@](C)([C@H](C)O)NC(=O)[C@H](Cc2c[nH]c3cccc(OC)c23)NC(=O)c2csc(n2)[C@@H](C)NC(=O)CN(C)C1=O | > 2 | 98.6 | > 200 | 2.5 (≈ 3.2 µM) | > 160 | > 160 | > 160 | 80 (≈ 102 µM) | 20 (≈ 25.6 µM) | 160 (≈ 205 µM) | > 50 | 40 (≈ 51.2 µM) | > 160 | 1.25 (≈ 1.6 µM)
CN[C@H](CC(C)C)C(=O)N[C@H]1C(=O)N[C@@H](CC(N)=O)C(=O)N[C@H]2C(=O)N[C@H]3C(=O)N[C@H](C(=O)N[C@H](C(=O)O)c4cc(O)cc(O)c4-c4cc3ccc4O)[C@H](O)c3ccc(c(Cl)c3)Oc3cc2cc(c3O[C@@H]2O[C@H](CO)[C@@H](O)[C@H](O)[C@H]2O[C@H]2C[C@](C)(N)[C@H](O)[C@H](C)O2)Oc2ccc(cc2Cl)[C@H]1O [VANCOMYCIN] | – | – | – | 0.62 (≈ 0.428 µM) | – | – | – | > 160 | 1.25 (≈ 0.863 µM) | > 160 | – | > 160 | < 0.078 | 1.25 (≈ 0.863 µM)
C/C=C1\NC(=O)[C@@H](CC)NC(=O)CNC(=O)[C@](C)(C(C)=O)NC(=O)[C@H](Cc2c[nH]c3cccc(OC)c23)NC(=O)c2csc(n2)[C@@H](C)NC(=O)CN(C)C1=O | > 17.7 | 6.3 | > 111 | 0.31 (≈ 0.397 µM) | > 160 | > 160 | > 160 | 20 (≈ 25.6 µM) | 2.5 (≈ 3.21 µM) | 20 (≈ 25.6 µM) | – | 10 (≈ 12.8 µM) | > 160 | 2.5 (≈ 3.21 µM)
C/C=C1\NC(=O)[C@@H](C)NC(=O)CNC(=O)[C@@H](CC)NC(=O)[C@H](Cc2c[nH]c3cccc(OC)c23)NC(=O)c2csc(n2)[C@@H](C)NC(=O)CN(C)C1=O | – | – | – | > 160 | > 160 | > 160 | > 160 | > 160 | > 160 | > 160 | > 50 | > 160 | > 160 | > 160
C[C@H]1COc2c(N3CCN(C)CC3)c(F)cc3c(=O)c(C(=O)O)cn1c23.C[C@H]1COc2c(N3CCN(C)CC3)c(F)cc3c(=O)c(C(=O)O)cn1c23.O [LEVOFLOXACIN] | – | – | – | 0.078 | – | – | – | < 0.078 | 0.078 | 5 | – | 5 | < 0.078 | 0.16
Cc1onc(-c2ccccc2)c1C(=O)N[C@@H]1C(=O)N2[C@@H]1SC(C)(C)[C@@H]2C(=O)O [OXACILLIN] | – | – | – | 80 (≈ 199 µM) | – | – | – | 40 (≈ 99.6 µM) | 0.078 (≈ 0.194 µM) | > 160 | – | > 160 | < 0.078 | 0.16 (≈ 0.399 µM)
C/C=C1\NC(=O)[C@@H](C)NC(=O)CNC(=O)[C@](C)(C(C)=O)NC(=O)[C@H](Cc2c[nH]c3cccc(OC)c23)NC(=O)c2csc(n2)[C@@H](C)NC(=O)CNC1=O | > 4.3 | 46.9 | > 200 | > 160 | > 160 | > 160 | > 160 | > 160 | > 160 | > 160 | > 50 | > 160 | > 160 | > 160
CC(C)OC(=O)[C@H](C)N[P@@](=O)(OC[C@H]1O[C@@H](n2ccc(=O)[nH]c2=O)[C@](C)(F)[C@@H]1O)Oc1ccccc1 | > 3330 | 0.06 | > 200 | – | – | – | – | – | – | – | – | – | – | –
CO[C@H]1/C=C/O[C@@]2(C)Oc3c(C)c(O)c4c(O)c(c(/C=N/N5CCN(C)CC5)c(O)c4c3C2=O)NC(=O)/C(C)=C\C=C\[C@H](C)[C@H](O)[C@@H](C)[C@@H](O)[C@@H](C)[C@H](OC(C)=O)[C@@H]1C [RIFAMPIN] | – | – | – | < 0.078 | – | – | – | 10 (≈ 12.2 µM) | < 0.078 | 10 (≈ 12.2 µM) | – | 10 (≈ 12.2 µM) | < 0.078 | < 0.078
C/C=C1\NC(=O)[C@@H](CC)NC(=O)CNC(=O)[C@](C)([C@@H](C)O)NC(=O)[C@H](Cc2c[nH]c3cccc(OC)c23)NC(=O)c2csc(n2)[C@@H](C)NC(=O)CN(C)C1=O | – | – | – | 1.25 (≈ 1.6 µM) | > 160 | > 160 | > 160 | 160 (≈ 205 µM) | 10 (≈ 12.8 µM) | > 160 | > 50 | 40 (≈ 51.2 µM) | > 160 | 0.62 (≈ 0.793 µM)
C/C=C1\NC(=O)[C@@H](CC)NC(=O)CNC(=O)[C@](C)(C(C)=O)NC(=O)[C@H](Cc2c[nH]c3cccc(OC)c23)NC(=O)c2csc(n2)[C@@H](C)NC(=O)CNC1=O | > 1.1 | 98.5 | > 106 | 160 (≈ 209 µM) | > 160 | > 160 | > 160 | > 160 | > 160 | > 160 | > 50 | > 160 | > 160 | 160 (≈ 209 µM)
